Read-outs that look alike come from different tables or passages of the source. Residues, ends and D or L forms follow the SMILES beside them.
Columns and labels:
plasmin = target: T1, plasmin (Homo sapiens, UniProt P00747); assay: Amidolytic activity of plasmin (chromogenic substrate H-D-Val-Leu-Lys-pNA); assay type: biochemical
T1 construct: purchased Chromogenix (Milano, Italy)
Description: (§1) The determination of amidolytic activity was performed as previously described by Okada. A detailed description of the method is given below: 0.2 mL of the examined peptides (0.15 M NaCl as contro), a buffer, and 0.1 mL of enzyme solution were mixed. The final peptide concentrations were: 0.2 mM, 2 mM, and 20 mM. The mixture was incubated at 37 °C for 3 min; then the synthetic substrate solution was added in the same buffer. After 20 min of incubation, the reaction was stopped by adding 0.1 mL of 50% acetic acid and the absorbance of the released p-nitroaniline was measured at 405 nm. The mean values from three independent experiments done in duplicate are presented. A method error of 5% was adopted as statistical error. IC50 value was considered as the concentration of inhibitor that reduces absorbance by 50%, compared with absorbance measured under the same conditions without an inhibitor. IC50 was calculated mathematically by extrapolation using a linear plot. IC50 values are presented in Table 1 and Table 2, and graphically in Figure 1.
(§2) The buffers and the enzyme solutions included: • Tris buffer—0.6 mL (pH 8.8), enzyme: urokinase (50 units/mL), synthetic substrate: pyro-Glu-Gly-Arg-pNA·HCl (0.1 mL, 3 mM); • Tris buffer—0.5 mL (pH 8.4), enzyme: thrombin (1 units/mL), synthetic substrate: H-D-Phe-Pip-Arg-pNA (0.2 mL, 0.75 mM); • Tris buffer—0.5 mL (pH 7.4), enzyme: plasmin (0.4 units/mL), synthetic substrate: H-D-Val-Leu-Lys-pNA (0.2 mL, 3 mM); • Borate buffer—0.5 mL (pH 7.5), enzyme: trypsin (0.4 units/mL), synthetic substrate: Bzl-L-Arg-pNA·HCl (0.2 mL, 8 mM); • Tris buffer—0.6 mL (pH 9.0), enzyme: kallikrein (3 units/mL), synthetic substrate: H-D-Val-Leu-Arg-pNA·2HCl (0.1 mL, 75 mM); • Tris buffer—0.6 mL (pH 8.4), enzyme: t-PA ([…]), synthetic substrate: H-D-Ile-Pro-Arg-pNA (0.1 mL, 10 mM) • Tris buffer—0.6 mL (pH 9.0), enzyme: chymotrypsin (0.4 units/mL), synthetic substrate: Suc-Phe-pNA (0.2 mL, 8 mM)

urokinase = target: T2, urokinase (Homo sapiens, UniProt P00749); assay: Amidolytic activity of urokinase (chromogenic substrate pyro-Glu-Gly-Arg-pNA); assay type: biochemical
T2 construct: purchased Sigma (Schnelldorf, Germany)
Description: as §1, §2

thrombin = target: T3, thrombin (Bos taurus, UniProt P00735); assay: Amidolytic activity of thrombin (chromogenic substrate H-D-Phe-Pip-Arg-pNA); assay type: biochemical
T3 construct: purchased Lubelska Wytwórnia Szczepionek (Lublin, Poland)
Description: The determination of amidolytic activity was performed as previously described by Okada. A detailed description of the method is given below: 0.2 mL of the examined peptides (0.15 M NaCl as contro), a buffer, and 0.1 mL of enzyme solution were mixed. The final peptide concentrations were: 0.2 mM, 2 mM, and 20 mM. The mixture was incubated at 37 °C for 3 min; then the synthetic substrate solution was added in the same buffer. […] The mean values from three independent experiments done in duplicate are presented. A method error of 5% was adopted as statistical error. […] IC50 was calculated mathematically by extrapolation using a linear plot.

[1] = Viability of fibroblast cells, MTT assay; assay type: cell-based, Human; conditions: human, primary dermal fibroblast cells
Description: Viability of fibroblast cells was examined with the use of the MTT assay. MTT, a yellow tetrazole, is reduced to purple formazan only in living cells. Absorbance of the coloured solution was measured by a spectrophotometer.
These studies were performed on primary dermal fibroblasts cells. The cells were maintained in DMEM supplemented with 10% fetal bovine serum (FBS), 2 mM glutamin, 50 U/mL penicillin and […] streptomycin at 37 °C in a 5% CO2 incubator. For experiments, cells cultures were plated at a density of 1 × 10^6/well in six-well culture plates (Costar, St. Louis, MO, USA) in 2 mL of growth medium. Cells reached about 80% of confluency at day 2 were used for the assays.
Toxicity of the tested substances was determined using an MTT [3-(4,5-dimethylthiazol-2-yl)-2,5-diphenyltetrazolium bromide)] assay. Palmitoyl and lipoyl peptides were dissolved in DMSO (dimethyl sulfoxide), the other peptides in DMEM, and added to the cell culture medium. Simultaneously, the same concentrations of DMSO without peptides were added to cells, serving as controls. The final peptide concentrations were: 1 μM, 10 μM, and 100 μM. After 24 h incubation, the cells cultured with the tested compounds were washed with phosphate-buffered saline (PBS) and then incubated for 4 h in 2 mL of MTT solution (5 mg/mL). After removing the medium, the cells were lysed in 200 μL of DMSO with 20 μL of Sorensen’s buffer (pH 10.5, 0.1 mol/L glycine with 0.1 mol/L NaCl). The absorbance of converted dye in living cells was measured at a wavelength of 570 nm. The mean values ± SD from three independent experiments done in duplicate are presented.

[2] = amidolytic activity, Tris pH 7.4, 37 °C, IC50 by extrapolation using a linear plot, error 5%, read-out: IC50 Plasmin
[3] = amidolytic activity, Tris pH 8.8, 37 °C, IC50 by extrapolation using a linear plot, error 5%, read-out: IC50 Urokinase
[4] = amidolytic activity, Tris pH 8.4, 37 °C, IC50 by extrapolation using a linear plot, error 5%, read-out: IC50 Thrombin
[5] = 1 µmol/L, 24 h, MTT, ± 2, read-out: Viability of fibroblast cells
[6] = 10 µmol/L, 24 h, MTT, ± 2, read-out: Viability of fibroblast cells
[7] = 100 µmol/L, 24 h, MTT, ± 2, read-out: Viability of fibroblast cells

T1 sequence (P00747 581-810 limits assumed): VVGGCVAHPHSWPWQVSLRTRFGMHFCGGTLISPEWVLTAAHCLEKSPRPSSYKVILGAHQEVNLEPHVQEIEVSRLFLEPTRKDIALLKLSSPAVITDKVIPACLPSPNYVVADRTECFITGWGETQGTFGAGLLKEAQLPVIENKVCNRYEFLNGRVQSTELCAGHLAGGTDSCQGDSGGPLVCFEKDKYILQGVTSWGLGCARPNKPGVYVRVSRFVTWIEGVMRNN
T1 sequence (P00747 97-580 partner limits assumed): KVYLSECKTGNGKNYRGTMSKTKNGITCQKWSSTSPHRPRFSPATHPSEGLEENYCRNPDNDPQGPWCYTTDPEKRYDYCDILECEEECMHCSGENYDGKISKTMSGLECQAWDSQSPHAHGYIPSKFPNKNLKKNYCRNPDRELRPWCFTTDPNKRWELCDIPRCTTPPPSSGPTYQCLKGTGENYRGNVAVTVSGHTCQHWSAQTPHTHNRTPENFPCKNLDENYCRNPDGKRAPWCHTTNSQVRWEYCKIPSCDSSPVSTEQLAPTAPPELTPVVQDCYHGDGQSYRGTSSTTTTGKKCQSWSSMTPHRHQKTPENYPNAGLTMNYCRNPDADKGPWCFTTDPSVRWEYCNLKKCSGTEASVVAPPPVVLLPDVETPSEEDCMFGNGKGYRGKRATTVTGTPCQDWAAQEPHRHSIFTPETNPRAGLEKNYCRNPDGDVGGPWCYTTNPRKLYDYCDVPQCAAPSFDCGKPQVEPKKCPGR

Compound	IC50 (plasmin; [2]) [µM]	IC50 (urokinase; [3]) [mM]	IC50 (thrombin; [4]) [mM]	viability at 24 h, 1 µmol/L [1, 5] [%]	viability at 24 h, 10 µmol/L [1, 6] [%]	viability at 24 h, 100 µmol/L [1, 7] [%]	other results
C[C@@H](O)[C@H](NC(=O)[C@H](CCCCN)NC(=O)CCCCC1CCSS1)C(=O)N[C@H](C(=O)N[C@@H](CCCCN)C(=O)N[C@@H](CO)C(N)=O)[C@@H](C)O (mixture of isomers) [Peptide 7, Lip-Lys-Thr-Thr-Lys-Ser-NH2]	580 ± 29	15.1 ± 0.75	11.7 ± 0.58	97	89	87	
C[C@@H](O)[C@H](NC(=O)[C@H](CCCCN)NC(=O)CCCCC1CCSS1)C(=O)N[C@H](C(=O)N[C@@H](CCCNC(=N)N)C(=O)N[C@@H](CO)C(=O)O)[C@@H](C)O (mixture of isomers) [Peptide 11, Lip-Lys-Thr-Thr-Arg-Ser-OH]	240 ± 12		10.9 ± 0.54	102	105	98	
C[C@@H](O)[C@H](NC(=O)[C@H](CCCCN)NC(=O)CCCCC1CCSS1)C(=O)N[C@H](C(=O)N[C@@H](CCCNC(=N)N)C(=O)N[C@@H](CO)C(N)=O)[C@@H](C)O (mixture of isomers) [Peptide 15, Lip-Lys-Thr-Thr-Arg-Ser-NH2]	690 ± 35	3.47 ± 0.17					IC50 (thrombin): 4.11 ± 0.21 mM; viability at 24 h, 1 µmol/L [1]: 112%; viability at 24 h, 10 µmol/L [1]: 122%; viability at 24 h, 100 µmol/L [1]: 115%
C[C@@H](O)[C@H](NC(=O)[C@H](CCCNC(=N)N)NC(=O)CCCCC1CCSS1)C(=O)N[C@H](C(=O)N[C@@H](CCCNC(=N)N)C(=O)N[C@@H](CO)C(=O)O)[C@@H](C)O (mixture of isomers) [Peptide 19, Lip-Arg-Thr-Thr-Arg-Ser-OH]	1010 ± 51		1.84 ± 0.092	79	81	90	
C[C@@H](O)[C@H](NC(=O)[C@H](CCCNC(=N)N)NC(=O)CCCCC1CCSS1)C(=O)N[C@H](C(=O)N[C@@H](CCCCN)C(=O)N[C@@H](CO)C(=O)O)[C@@H](C)O (mixture of isomers) [Peptide 27, Lip-Arg-Thr-Thr-Lys-Ser-OH]	2120 ± 110			105	91	80	IC50 (thrombin; converted from IC50 of Table 1, read-out: -logIC50 Thrombin (converted)): 4.27 mM
CCCCCCCCCCCCCCCC(=O)N[C@@H](CCCCN)C(=O)N[C@H](C(=O)N[C@H](C(=O)N[C@@H](CCCCN)C(=O)N[C@@H](CO)C(N)=O)[C@@H](C)O)[C@@H](C)O [Peptide 8, Pal-Lys-Thr-Thr-Lys-Ser-NH2] (HELM PEPTIDE1{[CCCCCCCCCCCCCCCC(=O)[*:2]].K.T.T.K.S.[am]}$$$$V2.0)		3.12 ± 0.16		96	83	83	IC50 (plasmin; amidolytic activity, palmitic peptides, read-out: IC50 plasmin (text, micromolar)): < 200 µM
CCCCCCCCCCCCCCCC(=O)N[C@@H](CCCCN)C(=O)N[C@H](C(=O)N[C@H](C(=O)N[C@@H](CCCNC(=N)N)C(=O)N[C@@H](CO)C(=O)O)[C@@H](C)O)[C@@H](C)O [Peptide 12, Pal-Lys-Thr-Thr-Arg-Ser-OH] (HELM PEPTIDE1{[CCCCCCCCCCCCCCCC(=O)[*:2]].K.T.T.R.S}$$$$V2.0)				103	98	99	
CCCCCCCCCCCCCCCC(=O)N[C@@H](CCCCN)C(=O)N[C@H](C(=O)N[C@H](C(=O)N[C@@H](CCCNC(=N)N)C(=O)N[C@@H](CO)C(N)=O)[C@@H](C)O)[C@@H](C)O [Peptide 16, Pal-Lys-Thr-Thr-Arg-Ser-NH2] (HELM PEPTIDE1{[CCCCCCCCCCCCCCCC(=O)[*:2]].K.T.T.R.S.[am]}$$$$V2.0)				104	114	115	IC50 (urokinase): 2.37 ± 0.12 mM
CCCCCCCCCCCCCCCC(=O)N[C@@H](CCCNC(=N)N)C(=O)N[C@H](C(=O)N[C@H](C(=O)N[C@@H](CCCNC(=N)N)C(=O)N[C@@H](CO)C(N)=O)[C@@H](C)O)[C@@H](C)O [Peptide 24, Pal-Arg-Thr-Thr-Arg-Ser-NH2] (HELM PEPTIDE1{[CCCCCCCCCCCCCCCC(=O)[*:2]].R.T.T.R.S.[am]}$$$$V2.0)		0.26 ± 0.013		94	104	97	
CCCCCCCCCCCCCCCC(=O)N[C@@H](CCCNC(=N)N)C(=O)N[C@H](C(=O)N[C@H](C(=O)N[C@@H](CCCCN)C(=O)N[C@@H](CO)C(N)=O)[C@@H](C)O)[C@@H](C)O [Peptide 32, Pal-Arg-Thr-Thr-Lys-Ser- NH2] (HELM PEPTIDE1{[CCCCCCCCCCCCCCCC(=O)[*:2]].R.T.T.K.S.[am]}$$$$V2.0)				104	113	118	
H-KTTRS-OH [Peptide 9, H-Lys-Thr-Thr-Arg-Ser-OH]	630 ± 31		4.01 ± 0.2	93	103	101	
H-RTTRS-OH [Peptide 17, H-Arg-Thr-Thr-Arg-Ser-OH]	280 ± 14		3.89 ± 0.19	89	99	115	IC50 (plasmin; converted from IC50 of Table 1, read-out: -logIC50 Plasmin (converted)): 288 µM
